{"source": "patent US20070207191A1", "about": "“PHARMACEUTICAL COMPOSITIONS AND METHODS TO ACHIEVE AND MAINTAIN A TARGETED AND STABLE COPPER STATUS AND PREVENT AND TREAT COPPER-RELATED CENTRAL NERVOUS SYSTEM DISEASES” (priority 2006, published 2007)", "key": {"[1]": {"assay": "Dissolution of ATTM crystals of different size in acidic buffer (pH 2)", "assay_type": "physicochemical", "experimental": "After 1 hour of incubation in acidic buffer, more than 50% of ATTM was found.\n• 1. ATTM purchased from Sigma-Aldrich was sieved using a 1700 micron screen. […] ATTM crystals were ground so that no crystals were larger than 50 microns. These will be referred to as small crystals. • 3. 100 mg of each type of crystal was weighed and added to separate 1.7 ml plastic centrifuge tubes. • 4. 1 ml of buffer pH 2 was added to each tube without mixing. • 5. After 1 hour, each tube was centrifuged at 14,000 rpms for 1 minute. • 6. The supernatant was removed and analyzed for ATTM content. • 7. To the pellet of each tube was added 1 ml of phosphate buffer pH 7.4 • 8. Each solution was vortex-mixed. • 9. Each tube was centrifuged at 14,000 rpms for 1 min. • 10. The supernatant from each tube was analyzed for ATTM content. Analysis: • 1. A 1 to 100 dilution of all supernatants were made in phosphate buffer pH 7.4. • 2. 2 ml of each diluted sample were added to plastic cuvettes. • 3. Absorbance was measured at 467 nm. • 4. The extinction coefficients (EC) of ATTM for each sample were calculated.\nObservations: • 1. When acid buffer was added to small crystals of ATTM, the solution turned immediately black and a sulfur odor could be detected. • 2. […] This was observed by the 1 hour incubation time point. • 3. When acid buffer was added to large crystals of ATTM, a small amount of black coloration leached from the crystal. […] Conclusions: • 1. […] In acid, un-dissolved ATTM from large crystals can be liberated with a secondary dissolution in neutral media. • 5."}, "[2]": {"assay": "Example 14: stability of ATTM capsules after eight weeks", "assay_type": "physicochemical", "details": "stored at RT and ambient RH"}, "[3]": {"assay": "Example 13: dissolution of ATTM capsule in artificial gastric fluid", "assay_type": "physicochemical", "experimental": "FIG. 1 is a plot of the dissolution profile of an ammonium tetrathromolybdate (ATTM) capsule in gastric juice in accordance with Example 13 hereof; and\nWe performed a dissolution experiment using a capsule containing 20 mg of ammonium tetrathiomolybdate plus excipient. ATTM crystals used were 500 microns or smaller. […] After, 3 hours of dissolution, black particles released from the capsule were found suspended in solution. After neutralization of the gastric media to pH 9, these black particles disappeared resulting in about 10% of ATTM being recovered.\n• 1. […] Conclusion: ˜90% of ATTM is destroyed in the stomach. Method: Material Studied • 1. Study was performed on R&D Pipex formulated capsule of ATTM. • 2. The ATTM was milled through a 500 micron sieve. • 3. The capsule contained ˜20 mg of ATTM and 180 mg of excipient. Dissolution Conditions • 1. Media: 1 liter of UPS artificial gastric fluid pH 2 • 2. Temp: 22° C. • 3. Paddle RPMs: 100 • 4. Dissolution time: 3 hours Procedure • 1. A #2 QualiCaps capsule available from Shionogi Europe, B.V. was mechanically dropped into media at time zero • 2. 1 ml of media was then collected at 1, 2, 4, 8, 16, 30, 45, 75, 120 and 180 min • 3. Following 3 hours of dissolution, the pH was raised to 9 using NaOH pellets. • 4. The media was paddled for 1 hour. • 5. After 1 hour a sample was collect for analysis Analysis • 1. 400 ul of collected media was diluted to 2 ml with phosphate buffer, pH 7 • 2. The solution was placed in a cuvette and scanned between 260 and 600 nm. • 3. Absorbance was measured at 367 nm. • 4. The extinction coefficient was calculated using Beer's law. • 5. The extinction coefficient of a reference sample in a capsule is 13500 cm^−1 M^−1 Conclusion: • 1. Any ATTM that dissolves in media at pH 2 is immediately destroyed. • 2. Some of the ATTM floated in the media as black specks following 3 hours of dissolution. • 3. After three hours when the pH of the solution was raised to pH 9, the color of the solution changed to an orange color. • 4. This presumably is stable ATTM that has dissolved. • 5. […]"}, "[4]": {"details": "infants at one month of age, supplemented 80 μg Cu/kg daily for 15 days; cited from earlier work"}, "free copper in the CNS": {"test_system": "free copper in the CNS", "details": "in vivo"}, "neural tube defects": {"test_system": "neural tube defects", "details": "adequate intake by mothers prior to pregnancy; cited from earlier work"}, "[5]": {"assay": "Example 5: tetrathiomolybdate crystals and capsule in simulated stomach acid", "assay_type": "physicochemical", "experimental": "Large (>1000 microns) and small (<50 microns) dark orange crystals of tetrathiomolybdate are placed in a solution of a commercially available simulated stomach acid. […] The dissolution properties of the large verses small crystals are clearly distinct. To further examine the properties of a methylcellulose capsule containing 20 mg of tetrathiomolybdate and 180 mg of excipient containing a heterogenous size range (200-800 microns) of tetrathiomolybdate crystals was examined in a dissolution chamber initially containing simulated stomach acid. The gelatin capsule dissolved within 15 minutes. Tetrathiothiomolybdate recovery was assessed by UV/Visible absorption periodically over 3 hours, a time consistent with the initiation of gastric emptying and the initial phase of postprandial absorption. […] At three hours the remaining gastric juice was made alkaline by adjusting the pH to 8-9, the solution turned orange to red and was assessed by UV/V is spectroscopy to determine the recover of tetrathiothiomolybdate, which was approximately 7% of the amount in the capsule.\nWhen the same experiment is performed with small crystals, much less than 7% of parent compound is recovered, while when the experiment is performed with large crystals much greater than 7% of parent compound is recovered."}, "[6]": {"test_system": "intestinal absorption of copper", "details": "cited from earlier work"}, "[7]": {"assay": "Example 6: colour stability of crushed versus lyophilized tetrathiomolybdate", "assay_type": "physicochemical", "from_the_text": "Tetrathiothiomolybdate crystals are either crushed to a powder, that is initially orange in color, or placed in water to dissolve yielding a bright orange solution, which is filtered and lyophilized, which results in a dry powder orange in color."}, "[8]": {"assay": "Storage stability of tetrathiomolybdate under typical atmospheric temperature and humidity", "assay_type": "physicochemical", "details": "within three months", "from_the_text": "Tetrathiohiomolydates, under typical atmospheric condition of temperature and humidity are unstable and the active ingredient can undergo oxidation to molybdenum sulfoxide. Molydbdenum sulfoxide is not active as a copper binding agent and therapeutic agent for reduing body copper levels in humans. Tetrathiomolybdates can be expected to lose approximately 10% of its potency within three months if stored under such conditions."}, "[9]": {"details": "current formulations; cited from earlier work"}, "[10]": {"details": "oral dose of Cu^64 as copper acetate, humans; cited from earlier work"}, "[11]": {"details": "crystals 1700 microns or greater"}, "[12]": {"details": "pellet taken up in phosphate buffer pH 7.4"}, "[13]": {"details": "pellet taken up in phosphate buffer pH 7.4, 1 to 100 dilution"}, "[14]": {"details": "supernatant after 1 hour in buffer pH 2"}, "[15]": {"details": "supernatant after 1 hour in buffer pH 2, 1 to 100 dilution"}, "[16]": {"details": "50 mg immediate release capsules three times per day away from meals and beverages, Wilson's disease patients"}}, "note": "Entries after “also recorded” stand apart in the source; their conditions may differ."}
{"compound": "[NH4+].[NH4+].[SH-].[SH-].[S]=[Mo]=[S]", "note": "[ATTM, ammonium tetrathiomolybdate]", "values": [{"measurement": "survival of dissolved ATTM in acid media", "setting": "[1]", "result": "does not survive in acid media"}, {"measurement": "ATTM found after 1 hour of incubation in acidic buffer", "setting": "[1]; crystals 50 microns or less", "result": "no ATTM was found"}, {"measurement": "dissolution behaviour in acidic buffer (pH 2)", "setting": "[1]; crystals 50 microns or less", "result": "dissolved rapidly; also recorded: dissolves in Acid media but soon forms an insoluble precipitate"}, {"measurement": "ATTM found after 1 hour of incubation in acidic buffer", "setting": "[1]; [11]", "result": "more than 50%"}, {"measurement": "dissolution behaviour in acidic buffer (pH 2)", "setting": "[1]; [11]", "result": "dissolved slowly; also recorded: forms a black coating which seems to resist dissolution"}, {"measurement": "stability after 8-Weeks", "setting": "[2]", "result": "completely stable"}, {"measurement": "ATTM recovered after neutralization of the gastric media to pH 9", "setting": "[3]; after 3 hours of dissolution", "result": "about 10%"}, {"measurement": "ATTM destroyed", "setting": "[3]; artificial gastric fluid over three hours", "result": "~90", "unit": "%"}, {"measurement": "ATTM recovered dissolved in the gastric dissolution medium", "setting": "[3]; artificial gastric fluid pH 2, 22° C., up to 3 hours, crystals 500 microns or smaller", "result": "No ATTM was recovered; also recorded: No ATTM was found dissolved"}]}
{"compound": "[NH4+].[NH4+].[SH-].[SH-].[S]=[Mo]=[S]", "note": "[Large Crystal, ammonium tetrathiomolybdate]", "values": [{"measurement": "Extinction Coefficient", "setting": "[1]; [12]", "result": "7,000"}, {"measurement": "Absorbance at 467", "setting": "[1]; [13]", "result": 0.310}, {"measurement": "Extinction Coefficient", "setting": "[1]; [14]", "result": 0}, {"measurement": "Absorbance at 467", "setting": "[1]; [15]", "result": 0}]}
{"compound": "[NH4+].[NH4+].[SH-].[SH-].[S]=[Mo]=[S]", "note": "[Small Crystal, ammonium tetrathiomolybdate]", "values": [{"measurement": "Extinction Coefficient", "setting": "[1]; [12]", "result": 0}, {"measurement": "Absorbance at 467", "setting": "[1]; [13]", "result": 0}, {"measurement": "Extinction Coefficient", "setting": "[1]; [14]", "result": 0}, {"measurement": "Absorbance at 467", "setting": "[1]; [15]", "result": 0}]}
{"compound": "O=S(=O)([O-])[O-].[Cu+2]", "note": "[copper sulfate]", "values": [{"measurement": "Mean (+SD) copper absorption", "setting": "[4]", "result": "74.8+15.2%"}]}
{"compound": "CC(C)(S)[C@@H](N)C(=O)O", "note": "[d-pencillamine, d-penicillamine]", "values": [{"measurement": "levels of free copper in the CNS", "setting": "free copper in the CNS", "result": "increase the levels of free copper in the CNS"}]}
{"compound": "Nc1nc2ncc(CNc3ccc(C(=O)N[C@@H](CCC(=O)O)C(=O)O)cc3)nc2c(=O)[nH]1", "note": "[folic acid]", "values": [{"measurement": "reduction of the incidence of NTDs", "setting": "neural tube defects", "result": "up to 70%"}]}
{"compound": "[SH-].[SH-].[S]=[Mo]=[S]", "note": "[tetrathiomolybdate]", "values": [{"measurement": "detection in simulated gastric samples, removed and neutralized", "setting": "[5]; any time point over three hours, UV/Visible absorption", "result": "not detectable"}, {"measurement": "capsule dissolution time", "setting": "[5]; capsule with 20 mg tetrathiomolybdate and 180 mg excipient, simulated stomach acid", "result": "≤ 15", "unit": "min"}, {"measurement": "behaviour in simulated stomach acid", "setting": "[5]; large (>1000 microns) crystals", "result": "remain relatively intact"}, {"measurement": "behaviour in simulated stomach acid", "setting": "[5]; small (<50 microns) crystals", "result": "form a disaggregate cloudy black solution"}, {"measurement": "blocking of copper absorption compared with zinc", "setting": "[6]; human, in vivo", "result": "more effective blocker of copper absorption than zinc"}, {"measurement": "colour stability", "setting": "[7]; crushed crystals, nitrogen overlay, room temperature, closed tube", "result": "slowly turn black within a few day"}, {"measurement": "colour stability", "setting": "[7]; lyophilized dry powder, similar conditions", "result": "remains orange for over a month"}, {"measurement": "colour stability", "setting": "[7]; protected from atmosphere and moisture by covering with mineral", "result": "remains orange (i.e. not oxidized) for over a month"}, {"measurement": "loss of potency", "setting": "[8]", "result": "approximately 10%"}]}
{"compound": "NCCNCCNCCN", "note": "[trientine]", "values": [{"measurement": "levels of free copper in the CNS", "setting": "free copper in the CNS", "result": "increase the levels of free copper in the CNS"}]}
{"compound": "CC(=O)[O-].CC(=O)[O-].[Zn+2]", "note": "[zinc acetate]", "values": [{"measurement": "mean Cu^64 uptake", "setting": "[6]; [16]", "result": "0.82 % of the administered dose"}, {"measurement": "mean copper balance", "setting": "[6]; [16]", "result": -0.44, "unit": "mg/day"}, {"measurement": "control of copper", "setting": "[6]; once daily dosing of immediate release capsules", "result": "does not provide adequate control of copper"}, {"measurement": "stomach irritability", "setting": "[9]", "result": "~10 % of patients"}]}
{"compound": "[Zn]", "note": "[zinc]", "values": [{"measurement": "copper balance induced, average", "setting": "[6]; Wilson's patients, from the two week point", "result": "−0.35", "unit": "mg daily"}, {"measurement": "time to achieve intestinal metallothionein induction and a negative copper balance", "setting": "[6]; Wilson's patients", "result": "approximately two"}, {"measurement": "time to bring urine copper and nonceruloplasmin plasma copper down to subtoxic levels", "setting": "[6]; zinc therapy", "result": "six"}]}
{"compound": "copper acetate", "values": [{"measurement": "oral dose absorbed from the gastrointestinal tract", "setting": "[10]", "result": "about 65%"}, {"measurement": "oral dose absorbed from the gastrointestinal tract, range", "setting": "[10]", "result": "15-97%"}]}
